# Laboratory results from patent publication US6492369B2, “Therapeutic agents for drug dependence” (Santen Pharmaceutical Co., Ltd., priority 1998, dated 2002).
# Where a name gives a salt, the structure may show the parent alone.
# What was measured:
# Male Sprague-Dawley rats [1] = assay: Conditioned place preference test (CPP method): potential of test compound and addicting drugs to induce psychological dependence; format: in vivo, rat
# Description: Effects of 1,4-(diphenylalkyl)piperazine derivatives on the potency of induction of psychological dependence by addicting drugs were studied by using the conditioned place preference test (CPP method) according to the report of Suzuki et al. (Life Science, 57, 1277-1284 (1995)).
# Test of Potential to Induce Psychological Dependence of Test Compound and Addicting Drugs
# Male Sprague-Dawley rats, body weight: about 250 g, 5.5 weeks old, were used in groups of eight.
# An apparatus was used wherein a rectangular parallelepiped box was divided into two compartments at the center in length by a sliding partition and one compartment was made white, while the other compartment was made black.
# A test compound and addicting drugs to be used were dissolved in physiological saline.
# The solutions of the test compound (0.3 mg/ml, 1 mg/ml and 3 mg/ml solutions) were administered subcutaneously to the rats (1 ml/kg) The solutions of the addicting drugs were administered subcutaneously to morphine administration groups (2 mg/ml, 4 mg/ml and 8 mg/ml solutions of morphine hydrochloride) and intraperitonealy to cocaine administration groups (2 mg/ml, 4 mg/ml and 8 mg/ml solutions of cocaine hydrochloride) and to methamphetamine administration groups (1 mg/ml, 2 mg/ml and 4 mg/ml) (1 ml/kg respectively). Physiological saline was administered by the same method as the method of administration of each administration group (1 ml/kg respectively).
# The rats were placed in the box from which the partition had been removed. Each cumulative time the rats had spent in the white compartment and the black compartment respectively was measured for 15 minutes, and the spent time in the compartment where the rats had spent a longer time (pre-value) was determined from a difference between them. This operation was carried out once a day for three days.
# The box was divided into two compartments by the partition. The solution of the addicting drug or the solution of the test compound was administered subcutaneously to the rats. The rats were confined for 50 minutes to the compartment in which the rats had spent a shorter time in pre-conditioning. The next day, physiological saline was administered subcutaneously to the rats and, next, the rats were confined for 50 minutes to the compartment in which the rats had spent a longer time. This training was repeated three times (2×3 days).
# The partition was removed from the box, and the conditioned rats were placed in the box. Each cumulative time the rats spent in the white compartment and the black compartment respectively was measured for 15 minutes, and the spent time in the compartment where the rats had spent a longer time (post value) was determined from a difference between them.
# The cumulative time the rats had spent in the respective compartments was measured by using an infrared sensor.
# The potential to induce psychological dependence was evaluated by using CPP scores (sec.) showing a motivational effect of the conditioning drug as an index.
# The motivational effects of the addicting drugs and the test compound, which were the conditioning drugs, were determined by the following equation.
# CPP score (sec.)=post value (sec.)−pre value (sec.)
# Male Sprague-Dawley rats [2] = assay: Conditioned place preference test (CPP method): effect of test compound on potential of addicting drugs to induce psychological dependence; format: in vivo, rat; conditions: for Inhibition rate (%) of CPP score: average of eight
# Description: (Life Science, 57, 1277-1284 (1995)). Effect of Test Compound on Potential of Addicting Drugs to Induce Psychological Dependence Male Sprague-Dawley rats, body weight: about 250 g, 5.5 weeks old, were used in groups of eight. An apparatus was used wherein a rectangular parallelepiped box was divided into two compartments at the center in length by a sliding partition and one compartment was made white, while the other compartment was made black. A test compound and addicting drugs to be used were dissolved in physiological saline. The solutions of the test compound (1 mg/ml and 3 mg/ml) were administered subcutaneously to the rats (1 ml/kg). […] The rats were placed in the box from which the partition had been removed. Each cumulative time the rats had spent in the white compartment and the black compartment respectively was measured for 15 minutes, and the spent time in the compartment where the rats had spent a longer time (pre value) was determined from a difference between them. This operation was carried out once a day for three days. The box was divided into two compartments by the partition. The solution of the test compound was administered to the rats, and 30 minutes later, the solution of the addicting drug was further administered to the rats. The rats were confined for 50 minutes to the compartment in which the rats had spent a shorter time in pre-conditioning. The next day, only physiological saline was administered to the rats, and next the rats were confined for 50 minutes to the compartment in which the rats had spent a longer time. This training was repeated three times (2×3 days). The partition was removed from the box, and the conditioned rats were placed in the box. Each cumulative time the rats had spent in the white compartment and the black compartment respectively was measured for 15 minutes, and the spent time in the compartment where the rats had spent a longer time (post value) was determined from a difference between them. The cumulative time the rats had spent in the respective compartments was measured by using an infrared sensor. The potential of the addicting drugs to induce psychological dependence was evaluated by using CPP scores (sec.) showing a motivational effect of the conditioning drug as an index. CPP score (sec.)=post value (sec.)−pre value (sec.) The effects of the test compound on the potential of the addicting drugs to induce psychological dependence was determined by the following equation as inhibition rates (%). Inhibition rate (%)=[(A−B)/A]×100 A: CPP score (sec.) of physiological saline administration group B: CPP score (sec.) of test compound administration group
# [3] = 2 mg/kg (morphine s.c., cocaine i.p.), average of eight
# [4] = 4 mg/kg (morphine s.c., cocaine i.p.), average of eight
# [5] = 8 mg/kg (morphine s.c., cocaine i.p.), average of eight
compound,measurement,setting,value
"CN[C@@H](C)Cc1ccccc1.Cl [Methamphetamine, methamphetamine hydrochloride]","Potential to induce psychological dependence (motivational effect, in words)",Male Sprague-Dawley rats [1]; all doses tested,appetitive effects
same,CPP score,"Male Sprague-Dawley rats [1]; methamphetamine 1 mg/kg i.p., average of eight",155 s
same,CPP score,"Male Sprague-Dawley rats [1]; methamphetamine 2 mg/kg i.p., average of eight",224 s
same,CPP score,"Male Sprague-Dawley rats [1]; methamphetamine 4 mg/kg i.p., average of eight",151 s
"COc1ccc(CCN2CCN(CCCc3ccccc3)CC2)cc1OC [Compound A, 1-[2-(3,4-dimethoxyphenyl)ethyl]-4-(3-phenylpropyl)piperazine dihydrochloride]",CPP score,"Male Sprague-Dawley rats [1]; male, Sprague-Dawley, rat, in vivo, sc, 0.3 mg/kg, 6 days",-37 s
same,CPP score,"Male Sprague-Dawley rats [1]; male, Sprague-Dawley, rat, in vivo, sc, 1 mg/kg, 6 days",-45 s
same,CPP score,"Male Sprague-Dawley rats [1]; male, Sprague-Dawley, rat, in vivo, sc, 3 mg/kg, 6 days",-64 s
same,"Potential to induce psychological dependence (motivational effect, in words)","Male Sprague-Dawley rats [1]; rat, in vivo",no potential to induce psychological dependence
same,Inhibition rate (%) of CPP score,"Male Sprague-Dawley rats [2]; Cocaine administration group (cocaine hydrochloride 4 mg/kg i.p.), Compound A 1 mg/kg s.c. 30 min before",26%
same,Inhibition rate (%) of CPP score,"Male Sprague-Dawley rats [2]; Cocaine administration group (cocaine hydrochloride 4 mg/kg i.p.), Compound A 3 mg/kg s.c. 30 min before",55%
same,Inhibition rate (%) of CPP score,"Male Sprague-Dawley rats [2]; Methamphetamine administration group (methamphetamine hydrochloride 2 mg/kg i.p.), Compound A 1 mg/kg s.c. 30 min before",55%
same,Inhibition rate (%) of CPP score,"Male Sprague-Dawley rats [2]; Methamphetamine administration group (methamphetamine hydrochloride 2 mg/kg i.p.), Compound A 3 mg/kg s.c. 30 min before",57%
same,Inhibition rate (%) of CPP score,"Male Sprague-Dawley rats [2]; Morphine administration group (morphine hydrochloride 8 mg/kg s.c.), Compound A 1 mg/kg s.c. 30 min before",38%
same,Inhibition rate (%) of CPP score,"Male Sprague-Dawley rats [2]; Morphine administration group (morphine hydrochloride 8 mg/kg s.c.), Compound A 3 mg/kg s.c. 30 min before",50%
same,Effect on potential of addicting drugs to induce psychological dependence (in words),"Male Sprague-Dawley rats [2]; morphine, cocaine and methamphetamine administration groups, 1 and 3 mg/kg",apparently inhibited the potential of the addicting drugs to induce psychological dependence
"COC(=O)[C@H]1[C@@H](OC(=O)c2ccccc2)C[C@@H]2CC[C@H]1N2C.Cl [Cocaine, cocaine hydrochloride]",CPP score,Male Sprague-Dawley rats [1]; [3],141 s
same,CPP score,Male Sprague-Dawley rats [1]; [4],178 s
same,CPP score,Male Sprague-Dawley rats [1]; [5],259 s
same,"Potential to induce psychological dependence (motivational effect, in words)",Male Sprague-Dawley rats [1]; all doses tested,appetitive effects
"CN1CC[C@]23c4c5ccc(O)c4O[C@H]2[C@@H](O)C=C[C@H]3[C@H]1C5.Cl [Morphine, morphine hydrochloride]",CPP score,Male Sprague-Dawley rats [1]; [3],171 s
same,CPP score,Male Sprague-Dawley rats [1]; [4],187 s
same,CPP score,Male Sprague-Dawley rats [1]; [5],228 s
same,"Potential to induce psychological dependence (motivational effect, in words)",Male Sprague-Dawley rats [1]; all doses tested,appetitive effects
